Laboratory results published in US20170114030A1, “COMPOSITION WITH HIGH CONTENT OF CYCLIC DIPEPTIDE” (SUNTORY HOLDINGS LIMITED, priority 2014, published 2017).

How the values were obtained:
NCI-H716 cells = test: In vitro GLP-1 secretion-accelerating action (active GLP-1 ELISA); format: cell-based; conditions: for Significant difference (p < 0.05) vs control group, amount of active GLP-1 secreted: 1 hour, Student's t-test; for Amount of active GLP-1 secreted (relative value to control group as 100), Average value: after 1 hour, group with no cyclic dipeptide = 100
Procedure: (§1) In the Test Examples below, data were represented as average value±standard error. In Test Examples 1, 2, and 3, a Student's t-test was used for a statistical test, and in other Test Examples, one-way ANOVA was carried out for dispersion analysis followed by a multiple comparison test by using a Dunnet's test. […] All of these analyses were carried out by using an SPSS for Windows release 17.0 (manufactured by SPSS Inc.).
Among the cyclic dipeptides, 92 highly water-soluble cyclic dipeptides were used in the following experiment. In each well of a Poly-L-Lysine 96-well plate, NCI-H716 cells suspended in 100 μL of a DMEM (with 10% FBS, 2 mM glutamine, and 1% antibiotics added in advance) were seeded at 0.5×10^5 cells/well, and cultured in a CO2 incubator (manufactured by ESPEC CORP.) for 48 hours. After washing with PBS(+), 100 μL of a PBS(+) solution with each cyclic dipeptide at a final concentration of 10 mM and 10 μM of Sitagliptin phosphate added therein was added to the cells. After 1 hour, the resultant solution was recovered, and the amount of active GLP-1 in the solution was measured by using the ELISA kit. In the analysis, the amount of active GLP-1 for a group with no cyclic dipeptide added was defined as 100, and relative values thereto were used.
In each Table, cyclic dipeptides for which an in vitro active GLP-1 secretion-accelerating activity was found and was not found are listed.

plasma active GLP-1 = test: In vivo plasma active GLP-1 level-increasing action after oral administration; design: species or system mice; conditions: Experiment 4, 10 mg/kg orally
Procedure: as §1
Among the cyclic dipeptides, cyclic dipeptides for which an in vitro GLP-1 secretion-accelerating action was found and highly lipid-soluble cyclic dipeptides were used in the following experiment. Seven-week-old male C57/BL6J mice were purchased from CLEA Japan, Inc. for use, and they were subjected to an experiment after 1 week of a habituation period. Each animal was grown in an animal room with an air conditioning system (temperature: 23.5±1.0° C., humidity: 55±10 RH %, air ventilation: 12 to 15 times/hour, illumination: from 7:00 to 19:00/day).
After the habituation period, the mice were subjected to 5.5 hours of food deprivation and 2 hours of water deprivation. Thereafter, a cyclic dipeptide dissolved or suspended in a 0.5% CMC-Na aqueous solution in 10 mg/kg was orally administered to each mouse forcibly. After 30 minutes, the blood was collected from the abdominal vena cava under anesthesia, and 1 μL of heparin sodium and 1 μL of 10 mM Sitagliptin phosphate were added to each collected blood, which was then subjected to centrifugation at 8000 rpm for 10 minutes to recover the plasma, and the plasma active GLP-1 level was measured by using the ELISA kit. In the analysis, the active GLP-1 level for a group administered with 0.5% CMC-Na aqueous solution was defined as 100, and relative values thereto were used.
In each Table, cyclic dipeptides for which an in vivo plasma active GLP-1 level-increasing action was found and was not found are listed.

[1] = Experiment 5, cyclic dipeptide 10 mM with 10 μM Sitagliptin phosphate
[2] = Experiment 1, cyclic dipeptide 10 mM with 10 μM Sitagliptin phosphate
[3] = Experiment 2, cyclic dipeptide 10 mM with 10 μM Sitagliptin phosphate
[4] = Experiment 3, cyclic dipeptide 10 mM with 10 μM Sitagliptin phosphate

SMILES	Significant difference (p < 0.05) vs control group, amount of active GLP-1 secreted (NCI-H716 cells; Experiment 5, 10 mM)	Amount of active GLP-1 secreted (relative value to control group as 100), Average value (NCI-H716 cells; [1])	Significant difference (p < 0.05) vs control group, amount of active GLP-1 secreted (NCI-H716 cells; Experiment 3, 10 mM)	Amount of active GLP-1 secreted (relative value to control group as 100), Average value (NCI-H716 cells; [4])	also measured
O=C1NCC(=O)N2CCCC12 (stereo not shown) [compound 4]	Yes	157			
O=C1CNC(=O)C(Cc2ccccc2)N1 (stereo not shown) [compound 8]					Plasma active GLP-1 level (relative value to control group as 100), Average value (plasma active GLP-1; male C57/BL6J mice, blood after 30 minutes, 0.5% CMC-Na group = 100): 85; Significant difference (p < 0.05) vs control group, plasma active GLP-1 level (plasma active GLP-1; mice, 30 minutes, Student's t-test): No
CC(C)CC1NC(=O)CNC1=O (stereo not shown) [compound 21]	No	131			
O=C(O)CCC1NC(=O)CNC1=O (stereo not shown) [compound 24]	No	89			
O=C1CNC(=O)C(Cc2c[nH]cn2)N1 (stereo not shown) [compound 27]	No	82			
O=C(O)CC1NC(=O)CNC1=O (stereo not shown) [compound 32]	Yes	12			
NC(=O)CCC1NC(=O)CNC1=O (stereo not shown) [compound 36]	No	75			
NCCCC[C@@H]1NC(=O)[C@H](CCCCN)NC1=O [compound 40]					Significant difference (p < 0.05) vs control group, amount of active GLP-1 secreted (NCI-H716 cells; Experiment 1, 10 mM): No; Amount of active GLP-1 secreted (relative value to control group as 100), Average value (NCI-H716 cells; [2]): 164
O=C(O)CC[C@@H]1NC(=O)[C@@H]2CCCN2C1=O [compound 45]					Significant difference (p < 0.05) vs control group, amount of active GLP-1 secreted (NCI-H716 cells; Experiment 1, 10 mM): No; Amount of active GLP-1 secreted (relative value to control group as 100), Average value (NCI-H716 cells; [2]): 145
O=C1N[C@@H](CO)C(=O)N2CCC[C@@H]12 [compound 46]					Significant difference (p < 0.05) vs control group, amount of active GLP-1 secreted (NCI-H716 cells; Experiment 2, 10 mM): No; Amount of active GLP-1 secreted (relative value to control group as 100), Average value (NCI-H716 cells; [3]): 139
NC(=O)CC[C@@H]1NC(=O)[C@H](Cc2ccccc2)NC1=O [compound 65]					Significant difference (p < 0.05) vs control group, amount of active GLP-1 secreted (NCI-H716 cells; Experiment 2, 10 mM): Yes; Amount of active GLP-1 secreted (relative value to control group as 100), Average value (NCI-H716 cells; [3]): 227
CC(C)C[C@@H]1NC(=O)[C@H](CCCCN)NC1=O [compound 68]					Significant difference (p < 0.05) vs control group, amount of active GLP-1 secreted (NCI-H716 cells; Experiment 2, 10 mM): No; Amount of active GLP-1 secreted (relative value to control group as 100), Average value (NCI-H716 cells; [3]): 208
O=C1N[C@@H](Cc2c[nH]c3ccccc23)C(=O)N[C@H]1CO [compound 78]					Significant difference (p < 0.05) vs control group, amount of active GLP-1 secreted (NCI-H716 cells; Experiment 2, 10 mM): No; Amount of active GLP-1 secreted (relative value to control group as 100), Average value (NCI-H716 cells; [3]): 119
NCCCC[C@@H]1NC(=O)CNC1=O [compound 96]			Yes	133	
NCCCCC1NC(=O)C(CCC(=O)O)NC1=O (stereo not shown) [compound 97]			No	66	
NCCCCC1NC(=O)C(CO)NC1=O (stereo not shown) [compound 98]			Yes	71	
CC(C)C1NC(=O)C(CCCCN)NC1=O (stereo not shown) [compound 99]			Yes	532	
NCCCCC1NC(=O)C(CC(N)=O)NC1=O (stereo not shown) [compound 101]			Yes	250	
NCCCCC1NC(=O)C(CCC(N)=O)NC1=O (stereo not shown) [compound 102]			No	112	
NC(=O)CC1NC(=O)C(Cc2cnc[nH]2)NC1=O (stereo not shown) [compound 111]			Yes	341	
